{"source": "paper PMC10337138", "about": "(Acta Neuropathologica Communications, 2023)", "conditions_in_all_cases": "1 mM ATP; inhibitor", "key": {"[1]": {"target": "GRK7 (Homo sapiens, UniProt Q8WTQ7)", "description": "(§1) Kinase selectivity panel Kinome profiling was conducted by AssayQuant Technologies (Marlboro, MA) using Sox chromophore technology and Sox-based peptide substrates developed for human kinases in a 384-well format. Compounds were tested at 1 µM in the presence of 1 mM ATP."}, "[2]": {"target": "MYLK2 (Homo sapiens, UniProt Q9H1R3)", "description": "as §1"}, "[3]": {"target": "NEK9 (Homo sapiens, UniProt Q8TD19)", "description": "as §1"}, "[4]": {"target": "MAP3K7 (Homo sapiens, UniProt O43318)", "description": "as §1"}, "[5]": {"target": "RPS6KB1/P70S6K (Homo sapiens, UniProt P23443)", "description": "as §1"}, "[6]": {"target": "FAM20C (Homo sapiens, UniProt Q8IXL6)", "description": "as §1"}, "[7]": {"target": "FGFR2 (Homo sapiens, UniProt P21802)", "description": "as §1"}, "[8]": {"target": "BRSK2 (Homo sapiens, UniProt Q8IWQ3)", "description": "as §1"}, "[9]": {"target": "EIF2AK3/PEK (Homo sapiens, UniProt Q9NZJ5)", "description": "as §1"}, "[10]": {"target": "DYRK3 (Homo sapiens, UniProt O43781)", "description": "as §1"}, "[11]": {"target": "PRKG2 (Homo sapiens, UniProt Q13237)", "description": "as §1"}, "[12]": {"target": "BMP2K/BIKE (Homo sapiens, UniProt Q9NSY1)", "sequence (Q9NSY1 whole entry)": "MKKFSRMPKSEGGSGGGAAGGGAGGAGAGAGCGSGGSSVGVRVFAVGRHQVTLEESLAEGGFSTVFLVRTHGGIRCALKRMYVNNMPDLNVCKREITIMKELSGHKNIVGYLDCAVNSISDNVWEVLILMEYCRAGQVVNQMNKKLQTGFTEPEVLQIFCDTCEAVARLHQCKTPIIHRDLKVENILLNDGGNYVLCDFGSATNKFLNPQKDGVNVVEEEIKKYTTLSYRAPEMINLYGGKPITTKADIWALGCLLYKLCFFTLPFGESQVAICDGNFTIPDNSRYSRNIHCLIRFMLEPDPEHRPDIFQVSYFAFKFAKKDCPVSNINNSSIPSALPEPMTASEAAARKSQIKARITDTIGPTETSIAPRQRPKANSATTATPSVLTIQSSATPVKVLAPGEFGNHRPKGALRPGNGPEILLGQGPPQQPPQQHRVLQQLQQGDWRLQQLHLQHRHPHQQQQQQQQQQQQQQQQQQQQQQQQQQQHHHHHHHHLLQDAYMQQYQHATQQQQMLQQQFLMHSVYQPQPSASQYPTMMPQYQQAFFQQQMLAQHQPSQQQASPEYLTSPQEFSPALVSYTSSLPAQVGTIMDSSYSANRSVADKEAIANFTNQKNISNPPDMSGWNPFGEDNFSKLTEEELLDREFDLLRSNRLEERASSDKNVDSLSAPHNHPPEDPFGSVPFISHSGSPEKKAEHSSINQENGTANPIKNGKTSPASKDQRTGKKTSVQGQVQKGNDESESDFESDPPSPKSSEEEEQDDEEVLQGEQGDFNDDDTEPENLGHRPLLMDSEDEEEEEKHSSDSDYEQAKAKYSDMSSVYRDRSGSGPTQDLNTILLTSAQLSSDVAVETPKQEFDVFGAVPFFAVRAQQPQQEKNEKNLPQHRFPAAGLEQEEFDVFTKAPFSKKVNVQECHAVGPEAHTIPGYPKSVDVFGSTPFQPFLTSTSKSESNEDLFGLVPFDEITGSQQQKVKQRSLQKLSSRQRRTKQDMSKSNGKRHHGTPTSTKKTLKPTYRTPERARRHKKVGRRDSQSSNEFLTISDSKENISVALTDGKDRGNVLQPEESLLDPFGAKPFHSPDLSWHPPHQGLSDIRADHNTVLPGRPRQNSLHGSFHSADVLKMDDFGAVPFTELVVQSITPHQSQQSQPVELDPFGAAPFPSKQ", "description": "as §1"}, "[13]": {"target": "MAPK8/JNK1 (Homo sapiens, UniProt P45983)", "description": "as §1"}, "[14]": {"target": "PRKD3 (Homo sapiens, UniProt O94806)", "sequence (O94806 whole entry)": "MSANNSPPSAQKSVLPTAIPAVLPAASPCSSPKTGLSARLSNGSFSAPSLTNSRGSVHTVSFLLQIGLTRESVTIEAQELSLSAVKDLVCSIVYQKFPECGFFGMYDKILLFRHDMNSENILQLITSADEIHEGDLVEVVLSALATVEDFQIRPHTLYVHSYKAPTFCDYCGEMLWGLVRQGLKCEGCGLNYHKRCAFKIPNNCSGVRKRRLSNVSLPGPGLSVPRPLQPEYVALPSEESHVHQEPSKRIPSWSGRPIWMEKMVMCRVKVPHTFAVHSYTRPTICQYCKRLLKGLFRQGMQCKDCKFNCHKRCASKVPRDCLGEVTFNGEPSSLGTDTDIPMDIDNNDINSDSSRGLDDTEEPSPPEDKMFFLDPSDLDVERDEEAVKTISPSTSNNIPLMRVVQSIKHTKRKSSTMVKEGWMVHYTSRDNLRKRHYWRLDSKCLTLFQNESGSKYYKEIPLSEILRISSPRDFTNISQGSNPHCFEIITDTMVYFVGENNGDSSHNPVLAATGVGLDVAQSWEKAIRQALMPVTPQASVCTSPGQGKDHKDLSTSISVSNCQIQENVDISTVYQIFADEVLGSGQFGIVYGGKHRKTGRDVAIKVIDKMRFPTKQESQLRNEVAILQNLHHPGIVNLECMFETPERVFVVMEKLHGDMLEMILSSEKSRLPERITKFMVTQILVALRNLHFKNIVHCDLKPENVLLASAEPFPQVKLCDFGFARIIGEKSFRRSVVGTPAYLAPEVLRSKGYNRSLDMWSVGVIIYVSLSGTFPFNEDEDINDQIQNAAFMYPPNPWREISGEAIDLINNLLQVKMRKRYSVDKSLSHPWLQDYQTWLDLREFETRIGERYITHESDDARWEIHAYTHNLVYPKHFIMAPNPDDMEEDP", "description": "as §1"}, "[15]": {"target": "MAP4K2/GCK (Homo sapiens, UniProt Q12851)", "description": "as §1"}, "[16]": {"target": "ERN2 (Homo sapiens, UniProt Q76MJ5)", "description": "as §1"}, "[17]": {"target": "PLK3 (Homo sapiens, UniProt Q9H4B4)", "description": "as §1"}, "[18]": {"target": "CSNK1G1/CK1G1 (Homo sapiens, UniProt Q9HCP0)", "sequence (Q9HCP0 whole entry)": "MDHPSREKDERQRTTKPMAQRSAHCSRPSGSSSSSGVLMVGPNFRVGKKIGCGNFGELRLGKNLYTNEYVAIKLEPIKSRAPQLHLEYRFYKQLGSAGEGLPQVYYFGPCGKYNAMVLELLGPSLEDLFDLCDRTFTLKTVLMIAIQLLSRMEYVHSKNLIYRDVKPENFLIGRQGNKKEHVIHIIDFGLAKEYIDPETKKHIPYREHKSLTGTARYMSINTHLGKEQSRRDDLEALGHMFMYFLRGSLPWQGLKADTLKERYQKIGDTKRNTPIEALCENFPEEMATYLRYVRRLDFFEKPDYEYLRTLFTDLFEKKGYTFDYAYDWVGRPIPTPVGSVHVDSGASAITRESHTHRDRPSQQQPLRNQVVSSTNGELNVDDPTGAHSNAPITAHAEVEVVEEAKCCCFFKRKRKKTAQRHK", "description": "as §1"}, "[19]": {"target": "DCLK2/DCAML2 (Homo sapiens, UniProt Q8N568)", "sequence (Q8N568 whole entry)": "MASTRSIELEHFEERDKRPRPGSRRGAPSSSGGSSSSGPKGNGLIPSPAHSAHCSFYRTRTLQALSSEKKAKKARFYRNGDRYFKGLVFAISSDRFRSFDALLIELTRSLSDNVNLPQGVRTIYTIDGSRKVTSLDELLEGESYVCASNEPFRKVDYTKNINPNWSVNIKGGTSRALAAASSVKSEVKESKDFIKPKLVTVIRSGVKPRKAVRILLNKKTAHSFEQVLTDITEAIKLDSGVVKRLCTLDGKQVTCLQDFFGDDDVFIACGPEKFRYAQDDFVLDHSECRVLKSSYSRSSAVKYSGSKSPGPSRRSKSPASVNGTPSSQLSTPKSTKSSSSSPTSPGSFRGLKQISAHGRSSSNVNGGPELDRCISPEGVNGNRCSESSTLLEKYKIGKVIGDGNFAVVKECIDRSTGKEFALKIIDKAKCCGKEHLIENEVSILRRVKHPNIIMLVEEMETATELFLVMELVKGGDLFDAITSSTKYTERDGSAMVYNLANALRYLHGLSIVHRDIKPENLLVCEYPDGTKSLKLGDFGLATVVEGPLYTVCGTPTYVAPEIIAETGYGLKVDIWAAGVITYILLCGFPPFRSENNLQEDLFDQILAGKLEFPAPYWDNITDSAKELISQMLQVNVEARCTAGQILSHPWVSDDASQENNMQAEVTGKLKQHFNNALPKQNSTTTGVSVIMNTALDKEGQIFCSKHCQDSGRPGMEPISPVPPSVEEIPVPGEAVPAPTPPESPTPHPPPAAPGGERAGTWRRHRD", "description": "as §1"}, "[20]": {"target": "GRK4 (Homo sapiens, UniProt P32298)", "description": "as §1"}, "[21]": {"target": "CDK17 (Homo sapiens, UniProt Q00537)", "description": "as §1"}, "[22]": {"target": "GRK2 (Homo sapiens, UniProt P25098)", "sequence (P25098 whole entry)": "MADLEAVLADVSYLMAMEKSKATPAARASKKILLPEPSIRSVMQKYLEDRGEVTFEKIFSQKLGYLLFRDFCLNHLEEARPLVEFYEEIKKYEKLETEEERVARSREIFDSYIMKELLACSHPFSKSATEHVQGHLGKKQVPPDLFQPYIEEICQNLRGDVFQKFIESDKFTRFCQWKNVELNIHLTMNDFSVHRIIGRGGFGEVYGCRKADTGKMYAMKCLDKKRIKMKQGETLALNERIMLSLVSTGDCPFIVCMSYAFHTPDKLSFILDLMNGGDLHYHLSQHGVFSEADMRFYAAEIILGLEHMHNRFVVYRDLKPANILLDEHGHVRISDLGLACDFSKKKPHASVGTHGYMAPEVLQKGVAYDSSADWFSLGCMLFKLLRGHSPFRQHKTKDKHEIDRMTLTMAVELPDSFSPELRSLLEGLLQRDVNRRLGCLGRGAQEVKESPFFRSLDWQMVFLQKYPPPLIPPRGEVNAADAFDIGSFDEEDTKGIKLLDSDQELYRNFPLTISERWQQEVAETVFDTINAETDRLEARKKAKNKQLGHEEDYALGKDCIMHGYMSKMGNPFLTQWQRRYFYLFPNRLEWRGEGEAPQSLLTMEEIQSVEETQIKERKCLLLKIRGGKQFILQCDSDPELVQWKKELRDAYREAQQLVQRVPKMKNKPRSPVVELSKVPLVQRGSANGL", "description": "as §1"}, "[23]": {"target": "PRKDC/DNA-PK (Homo sapiens, UniProt P78527)", "description": "as §1"}, "[24]": {"target": "PRKCA/PKCA (Homo sapiens, UniProt P17252)", "description": "as §1"}, "[25]": {"target": "T1, FYNA (Homo sapiens, UniProt P06241)", "T1 construct": "gene FYN", "description": "as §1"}, "[26]": {"target": "MARK1 (Homo sapiens, UniProt Q9P0L2)", "description": "as §1"}, "[27]": {"target": "PRKACA (Homo sapiens, UniProt P17612)", "description": "as §1"}, "[28]": {"target": "DDR1 (Homo sapiens, UniProt Q08345)", "sequence (Q08345 whole entry)": "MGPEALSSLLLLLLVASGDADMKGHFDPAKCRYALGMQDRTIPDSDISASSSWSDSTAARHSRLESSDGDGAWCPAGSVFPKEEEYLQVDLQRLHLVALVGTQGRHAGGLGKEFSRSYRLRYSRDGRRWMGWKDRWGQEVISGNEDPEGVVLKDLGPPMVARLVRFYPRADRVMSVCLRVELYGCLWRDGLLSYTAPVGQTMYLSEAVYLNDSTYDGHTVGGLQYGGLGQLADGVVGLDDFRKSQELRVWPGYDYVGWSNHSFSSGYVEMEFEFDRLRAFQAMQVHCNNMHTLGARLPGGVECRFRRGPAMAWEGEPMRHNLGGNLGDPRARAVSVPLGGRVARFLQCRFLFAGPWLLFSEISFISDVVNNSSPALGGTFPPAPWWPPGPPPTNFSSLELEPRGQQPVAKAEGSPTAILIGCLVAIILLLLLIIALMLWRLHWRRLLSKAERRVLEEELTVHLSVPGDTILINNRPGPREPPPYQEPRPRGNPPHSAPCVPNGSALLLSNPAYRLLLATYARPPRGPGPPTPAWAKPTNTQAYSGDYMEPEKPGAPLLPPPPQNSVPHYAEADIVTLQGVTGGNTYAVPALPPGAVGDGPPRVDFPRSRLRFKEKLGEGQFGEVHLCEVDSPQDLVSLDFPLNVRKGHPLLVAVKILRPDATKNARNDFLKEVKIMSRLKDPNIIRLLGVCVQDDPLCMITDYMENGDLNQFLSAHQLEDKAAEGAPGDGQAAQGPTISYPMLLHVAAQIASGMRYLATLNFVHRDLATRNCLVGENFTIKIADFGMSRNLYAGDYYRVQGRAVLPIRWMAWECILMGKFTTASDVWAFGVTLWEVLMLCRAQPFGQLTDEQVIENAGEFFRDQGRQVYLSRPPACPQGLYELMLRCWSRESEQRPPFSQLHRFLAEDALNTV", "description": "as §1"}, "[29]": {"target": "MAP4K3/GLK (Homo sapiens, UniProt Q8IVH8)", "description": "as §1"}, "[30]": {"target": "MAPK13/P38D (Homo sapiens, UniProt O15264)", "description": "as §1"}, "[31]": {"target": "FGFR3 (Homo sapiens, UniProt P22607)", "description": "as §1"}, "[32]": {"target": "GRK3 (Homo sapiens, UniProt P35626)", "description": "as §1"}, "[33]": {"target": "MARK2 (Homo sapiens, UniProt Q7KZI7)", "description": "as §1"}, "[34]": {"target": "CHEK2/CHK2 (Homo sapiens, UniProt O96017)", "description": "as §1"}, "[35]": {"target": "PAK1 (Homo sapiens, UniProt Q13153)", "description": "as §1"}, "[36]": {"target": "PAK2 (Homo sapiens, UniProt Q13177)", "description": "as §1"}, "[37]": {"target": "NEK5 (Homo sapiens, UniProt Q6P3R8)", "description": "as §1"}, "[38]": {"target": "CDK5/P25 (Homo sapiens, UniProt Q00535)", "description": "as §1"}, "[39]": {"target": "ALK (Homo sapiens, UniProt Q9UM73)", "description": "as §1"}}}
{"smiles": "C=CC(=O)N1CCC[C@@H](n2nc(-c3ccc(Oc4ccccc4)cc3)c3c(N)ncnc32)C1", "note": "[Ibrutinib]", "values": [{"measurement": "1 µM GBD00276 (ibrutinib), % inhibition", "setting": "[1]", "value": 3.056, "unit": "%"}, {"measurement": "1 µM GBD00276 (ibrutinib), % inhibition", "setting": "[2]", "value": -0.5778, "unit": "%"}, {"measurement": "1 µM GBD00276 (ibrutinib), % inhibition", "setting": "[3]", "value": 2.083, "unit": "%"}, {"measurement": "1 µM GBD00276 (ibrutinib), % inhibition", "setting": "[4]", "value": -2.955, "unit": "%"}, {"measurement": "1 µM GBD00276 (ibrutinib), % inhibition", "setting": "[5]", "value": -19.78, "unit": "%"}, {"measurement": "1 µM GBD00276 (ibrutinib), % inhibition", "setting": "[6]", "value": 3.541, "unit": "%"}, {"measurement": "1 µM GBD00276 (ibrutinib), % inhibition", "setting": "[7]", "value": 32.69, "unit": "%"}, {"measurement": "1 µM GBD00276 (ibrutinib), % inhibition", "setting": "[8]", "value": -9.3, "unit": "%"}, {"measurement": "1 µM GBD00276 (ibrutinib), % inhibition", "setting": "[9]", "value": -3.047, "unit": "%"}, {"measurement": "1 µM GBD00276 (ibrutinib), % inhibition", "setting": "[10]", "value": 15.88, "unit": "%"}, {"measurement": "1 µM GBD00276 (ibrutinib), % inhibition", "setting": "[11]", "value": 26.79, "unit": "%"}, {"measurement": "1 µM GBD00276 (ibrutinib), % inhibition", "setting": "[12]", "value": 12.88, "unit": "%"}, {"measurement": "1 µM GBD00276 (ibrutinib), % inhibition", "setting": "[13]", "value": 10.25, "unit": "%"}, {"measurement": "1 µM GBD00276 (ibrutinib), % inhibition", "setting": "[14]", "value": 1.376, "unit": "%"}, {"measurement": "1 µM GBD00276 (ibrutinib), % inhibition", "setting": "[15]", "value": 1.626, "unit": "%"}, {"measurement": "1 µM GBD00276 (ibrutinib), % inhibition", "setting": "[16]", "value": 3.601, "unit": "%"}, {"measurement": "1 µM GBD00276 (ibrutinib), % inhibition", "setting": "[17]", "value": 16.45, "unit": "%"}, {"measurement": "1 µM GBD00276 (ibrutinib), % inhibition", "setting": "[18]", "value": 4.449, "unit": "%"}, {"measurement": "1 µM GBD00276 (ibrutinib), % inhibition", "setting": "[19]", "value": -15.45, "unit": "%"}, {"measurement": "1 µM GBD00276 (ibrutinib), % inhibition", "setting": "[20]", "value": 18.83, "unit": "%"}, {"measurement": "1 µM GBD00276 (ibrutinib), % inhibition", "setting": "[21]", "value": 5.795, "unit": "%"}, {"measurement": "1 µM GBD00276 (ibrutinib), % inhibition", "setting": "[22]", "value": 3.639, "unit": "%"}, {"measurement": "1 µM GBD00276 (ibrutinib), % inhibition", "setting": "[23]", "value": 1.018, "unit": "%"}, {"measurement": "1 µM GBD00276 (ibrutinib), % inhibition", "setting": "[24]", "value": 14.87, "unit": "%"}, {"measurement": "1 µM GBD00276 (ibrutinib), % inhibition", "setting": "[25]", "value": 15.99, "unit": "%"}, {"measurement": "1 µM GBD00276 (ibrutinib), % inhibition", "setting": "[26]", "value": -2.409, "unit": "%"}, {"measurement": "1 µM GBD00276 (ibrutinib), % inhibition", "setting": "[27]", "value": -16.42, "unit": "%"}, {"measurement": "1 µM GBD00276 (ibrutinib), % inhibition", "setting": "[28]", "value": 24.25, "unit": "%"}, {"measurement": "1 µM GBD00276 (ibrutinib), % inhibition", "setting": "[29]", "value": 9.762, "unit": "%"}, {"measurement": "1 µM GBD00276 (ibrutinib), % inhibition", "setting": "[30]", "value": 0.9944, "unit": "%"}, {"measurement": "1 µM GBD00276 (ibrutinib), % inhibition", "setting": "[31]", "value": 31.81, "unit": "%"}, {"measurement": "1 µM GBD00276 (ibrutinib), % inhibition", "setting": "[32]", "value": -19.22, "unit": "%"}, {"measurement": "1 µM GBD00276 (ibrutinib), % inhibition", "setting": "[33]", "value": 4.287, "unit": "%"}, {"measurement": "1 µM GBD00276 (ibrutinib), % inhibition", "setting": "[34]", "value": -10.68, "unit": "%"}, {"measurement": "1 µM GBD00276 (ibrutinib), % inhibition", "setting": "[35]", "value": 16.51, "unit": "%"}, {"measurement": "1 µM GBD00276 (ibrutinib), % inhibition", "setting": "[36]", "value": 28.3, "unit": "%"}, {"measurement": "1 µM GBD00276 (ibrutinib), % inhibition", "setting": "[37]", "value": 12.71, "unit": "%"}, {"measurement": "1 µM GBD00276 (ibrutinib), % inhibition", "setting": "[38]", "value": 18.4, "unit": "%"}, {"measurement": "1 µM GBD00276 (ibrutinib), % inhibition", "setting": "[39]", "value": 3.723, "unit": "%"}]}
